Values of other authors as cited in paper PMC9653884, “Bisindolylmaleimides New Ligands of CaM Protein” (Molecules, 2022).

Molecular target: CaM
Conditions: read-out: Kd of reported CaM inhibitor

Row | Kd | Structure (SMILES)
1 | 14 µM | CN(C)CCCN1c2ccccc2CCc2ccccc21 [Imipramine]
2 | 5 µM | CC[C@]1(O)C[C@@H]2CN(CCc3c([nH]c4ccccc34)[C@@](C(=O)OC)(c3cc4c(cc3OC)N(C)[C@@H]3[C@]45CCN4CC=C[C@@](CC)(C[C@@]36OC(=O)N(CCCl)C6=O)[C@H]45)C2)C1 [KAR-2]
3 | 0.71 µM | NCCc1c[nH]c2ccc(O)cc12 [Serotonin]
4 | 7 µM | NCCCCCCNS(=O)(=O)c1cccc2c(Cl)cccc12 [W7]
